Reference: patent US7572768B2, “Methods for identifying compounds for regulating muscle mass or function using corticotropin releasing factor receptors” (priority 2001, dated 2009)

Columns and labels:
[1] = tested on: denervation-induced atrophy of skeletal muscle; test: mouse sciatic nerve denervation atrophy model; type: in vivo
Description: Legend: A—physiological saline (control); B—sauvagine (0.01 mg/kg)+theophylline; C—sauvagine (0.03 mg/kg)+theophylline; D—sauvagine (0.1 mg/kg)+theophylline; E—sauvagine (1.0 mg/kg)+theophylline; *—p≦0.05 compared to saline. Following denervation of the right sciatic nerve, male mice were injected subcutaneously in the midscapular region twice daily with sauvagine, at the doses indicated above or vehicle control (physiological saline) for nine days. Sauvagine was co-administered with 30 mg/kg theophylline. On day nine, the medial gastrocnemius muscle was removed and weighed to determine the degree of atrophy.
Legend: A—water (control); B—sauvagine (0.1 mg/kg/d); C—sauvagine (0.3 mg/kg/d); D—sauvagine (1.0 mg/kg/d); *—p≦0.05 compared to water. Following denervation of the right sciatic nerve, male mice were dosed with either sauvagine or vehicle control (physiological saline) by continuous infusion using an Alzet osmotic minipump at 5 μl/hr until the end of the experimental period (without additional theophylline). The daily delivered dose of sauvagine is indicated above. Minipump implantation was performed at the time of sciatic nerve denervation. On day nine the tibialis anterior muscle was removed and weighed to determine the degree of atrophy.
Legend: A—water (control); B—sauvagine (1 mg/kg/d); C—urocortin (1.0 mg/kg/d); *—p≦0.05 compared to water. Following denervation of the right sciatic nerve, male mice were dosed with the above indicated agents or vehicle control (physiological saline) by continuous infusion using an Alzet osmotic minipump at 5 μl/hr until the end of the experimental period (without additional theophylline). The daily delivered dose of the agents is indicated above. Minipump implantation was performed at the same time as the sciatic nerve denervation. On day nine the tibialis anterior muscle was removed and weighed to determine the degree of atrophy.
Legend: A-C—wild-type mice; D-F—CRF2R knockout mice. A and D—water (control); B and E—sauvagine (0.3 mg/kg/d); C and F—sauvagine (1.0 mg/kg/d); *—p≦0.05 compared to saline. Following denervation of the right sciatic nerve, female wild-type and CRF2R knockout mice were dosed with sauvagine or vehicle control by continuous infusion using an Alzet osmotic minipump at 5 μl/hr for nine days at the daily delivered dose indicated above. On day nine, the tibialis anterior muscle was removed and weighed to determine the degree of atrophy.
(§1) The sciatic nerve denervation atrophy model involves anesthetizing the animal followed by the surgical removal of a short segment of either the right or left sciatic nerve, e.g., in mice the sciatic nerve is isolated approximately at the midpoint along the femur and a 3-5 mm segment is removed. This denervates the lower hind limb musculature resulting in atrophy of these muscles. Typically, innervation to the biceps femoris is left intact to provide satisfactory motion of the knee for virtually normal ambulation. Typically, in untreated animals, muscle mass of the denervated muscles is reduced 30-50% ten days following denervation. Following denervation, test compounds are administered e.g., by injection or by continuous infusion, e.g., via implantation of an osmotic minipump (e.g., Alzet, Palo Alto, Calif.), to determine their effect on denervation induced skeletal muscle atrophy. At various times following denervation, the animals are euthanized and lower leg muscles are dissected rapidly from both the denervated and nondenervated legs, the muscles, cleaned of tendons and connective tissue, are weighed. The extent of atrophy in the affected muscles is analyzed, for example, by measuring muscle mass, muscle cross-sectional area, myofiber cross-sectional area or contractile protein content.

[2] = tested on: denervation-induced atrophy of skeletal muscle; test: adrenalectomized rat sciatic nerve denervation-induced atrophy model; type: in vivo; conditions: male adrenalectomized rats, 0.003-0.03 mg/kg s.c. twice daily + 30 mg/kg theophylline, nine days
Description: Legend: A—physiological saline (control); B—sauvagine (0.003 mg/kg)+theophylline; C—sauvagine (0.01 mg/kg)+theophylline; D—sauvagine (0.03 mg/kg)+theophylline; #—p≦0.05 compared to corresponding controls. Following denervation of the right sciatic nerve, male adrenalectomized rats (adrenalectomized rats were used to remove the skeletal muscle atrophy-inducing effects of activation of the HPA axis via agonisms of the CRF1R) were injected subcutaneously in the midscapular region twice daily, with either sauvagine or vehicle control (physiological saline) for nine days at the doses shown above. Sauvagine was co-administered with 30 mg/kg theophylline. On day nine, the tibialis anterior, extensor digitorum longus (EDL), soleus, medial gastrocnemius, and plantaris muscles were removed and weighed to determine the degree of atrophy.
as §1

CC[C@H](C)[C@H](NC(=O)[C@@H](NC(=O)[C@H](CC(=O)O)NC(=O)[C@H](CC(C)C)NC(=O)[C@H](CC(C)C)NC(=O)[C@H](CC(C)C)NC(=O)[C@H](CCCNC(=N)N)NC(=O)[C@H](CC(N)=O)NC(=O)[C@H](CC(N)=O)NC(=O)[C@H](C)NC(=O)[C@H](C)NC(=O)[C@H](CCC(N)=O)NC(=O)[C@H](CCC(N)=O)NC(=O)[C@H](CCCCN)NC(=O)[C@H](CCC(=O)O)NC(=O)[C@H](CCCCN)NC(=O)[C@H](CCC(=O)O)NC(=O)[C@H](CCC(N)=O)NC(=O)[C@H](CCCCN)NC(=O)[C@H](CCC(=O)O)NC(=O)[C@@H](NC(=O)[C@H](CCC(=O)O)NC(=O)[C@@H](NC(=O)[C@H](CCSC)NC(=O)[C@H](CCCCN)NC(=O)[C@H](CCCNC(=N)N)NC(=O)[C@H](CC(C)C)NC(=O)[C@H](CC(C)C)NC(=O)[C@H](CCC(=O)O)NC(=O)[C@H](CC(C)C)NC(=O)[C@H](CO)NC(=O)[C@H](CC(C)C)NC(=O)[C@H](CC(=O)O)NC(=O)[C@@H](NC(=O)[C@H](CO)NC(=O)[C@@H](NC(=O)[C@@H]1CCCN1C(=O)[C@@H]1CCCN1C(=O)CNC(=O)[C@@H]1CCC(=O)N1)[C@@H](C)CC)[C@@H](C)CC)[C@@H](C)CC)[C@@H](C)CC)[C@@H](C)O)C(N)=O [sauvagine]
denervation-induced atrophy of the medial gastrocnemius muscle (muscle weight) ([1]; FIG. 1, male mice, 0.01-1.0 mg/kg s.c. twice daily + 30 mg/kg theophylline, nine days): inhibits denervation-induced atrophy
denervation-induced atrophy of the tibialis anterior muscle (muscle weight) ([1]; FIG. 2, male mice, 0.1-1.0 mg/kg/d continuous infusion by osmotic minipump, no theophylline, day nine): inhibits denervation-induced atrophy
denervation-induced atrophy of the tibialis anterior muscle (muscle weight) ([1]; FIG. 5, male mice, 1 mg/kg/d continuous infusion by osmotic minipump, no theophylline, day nine): inhibit denervation-induced atrophy
denervation-induced atrophy of the tibialis anterior muscle (muscle weight) ([1]; FIG. 8, female wild-type mice, 0.3 and 1.0 mg/kg/d by osmotic minipump, nine days): inhibits the atrophy
denervation-induced atrophy of the tibialis anterior muscle (muscle weight) ([2]; FIG. 7A): inhibits denervation-induced atrophy
denervation-induced atrophy of the EDL muscle (muscle weight) ([2]; FIG. 7B): inhibits denervation-induced atrophy
hypertrophy of the non-denervated EDL muscle ([2]; FIG. 7B): statistically significant hypertrophy
denervation-induced atrophy of the soleus muscle (muscle weight) ([2]; FIG. 7C): inhibits denervation-induced atrophy
denervation-induced atrophy of the medial gastrocnemius muscle (muscle weight) ([2]; FIG. 7D): inhibits denervation-induced atrophy
denervation-induced atrophy of the plantaris muscle (muscle weight) ([2]; FIG. 7E): inhibits denervation-induced atrophy
